In article PMC11279897, “Isolation of Alpha-Glucosidase Inhibitors from the Panamanian Mangrove Plant Mora oleifera (Triana ex Hemsl.) Ducke” (Pharmaceuticals, 2024):

Legend:
[1] = target: alpha-glucosidase enzyme; assay: Inhibition of alpha-glucosidase assay (PNPG substrate, 96-well plate); format: biochemical; details: enzyme from Saccharomyces cerevisiae
Procedure: The assay was performed in 96-well plates. Both test samples and the positive control were dissolved in DMSO or MeOH. Test samples (20 μL) were added to their respective wells containing 150 μL of the enzyme (from Saccharomyces cerevisiae purchased from Sigma-Aldrich Co., St. Louis, MO, USA) solution (32 mU/mL), followed by incubation at 37 °C for 7 min. Subsequently, 150 μL of PNPG (4-Nitrophenyl-[…]-D-glucopyranoside, 2 mM) was introduced into each well, and the plate was further incubated at 37 °C for 20 min. The resulting absorbance, corresponding to the p-nitrophenol released during the reaction, was measured at 400 nm. All assays were performed in duplicate. The activity of the samples was calculated as a percentage relative to the control (DMSO or MeOH, instead of the sample solution), using the following equation: %Inhibition=(∆ Acontrol−∆ Asample)/∆ Acontrol×100%
ΔAcontrol: absorbance of the control—absorbance of the blank
ΔAsample: absorbance of the sample—absorbance of the sample blank.
The concentration necessary to achieve a 50% inhibition of enzyme activity (IC50) was calculated through regression analysis. Data obtained from alpha-glucosidase inhibition assays were expressed as the mean ± standard deviation (SD) of three replicates. Statistical analysis was performed using Excel 2019 (Microsoft, Seattle, WA, USA). Finally, a one-way analysis of variance (ANOVA) followed by Tukey’s post-test was used to evaluate possible differences between the means of each data. To determine significant differences, statistical significance was defined as p-values ≤ 0.05 [25].

[2] = tested on: alpha-glucosidase; assay: Kinetics of alpha-glucosidase inhibition (Lineweaver-Burk plot); format: biochemical, Saccharomyces cerevisiae; details: Lineweaver-Burk plots, two inhibitor concentrations, various PNPG concentrations
Procedure: To determine the mode of inhibition of the compounds, fixed amounts of alpha-glucosidase were incubated with increasing concentrations of PNPG at 37 °C for 15 min, both in the absence and presence of inhibitors. Subsequently, the reactions were stopped, the sample absorbances were measured, and then the values obtained were analyzed using the Lineweaver–Burk plot. For this assay, three evaluations were performed, one in the absence of the inhibitor and the other using different concentrations of the inhibitors (at concentrations equivalent to their respective IC50 values). Again, the evaluations of each compound were performed in triplicate.

With `C=C(C)[C@@H]1CC[C@]2(C)CC[C@]3(C)[C@H](CC[C@@H]4[C@@]5(C)CCC(=O)C(C)(C)[C@@H]5CC[C@]43C)[C@@H]12` [Compound 1, lupenone] the IC50 [1] was 720 nM and the “mode of inhibition of alpha-glucosidase” value [2] was “reversible competitive inhibition”.
`C=C(C)[C@@H]1CC[C@]2(C)CC[C@]3(C)[C@H](CC[C@@H]4[C@@]5(C)CC[C@H](O)C(C)(C)[C@@H]5CC[C@]43C)[C@@H]12` [Compound 2, lupeol] was tested, and the IC50 [1] was 1050 nM.
For `C[C@H]1[C@H](C)CC[C@]2(C)CC[C@]3(C)C(=CC[C@@H]4[C@@]5(C)CC[C@H](O)C(C)(C)[C@@H]5CC[C@]43C)[C@H]12` [Compound 3, α-amyrin], the IC50 [1] was 2130 nM.
`CC1(C)CC[C@]2(C)CC[C@]3(C)C(=CC[C@@H]4[C@@]5(C)CC[C@H](O)C(C)(C)[C@@H]5CC[C@]43C)[C@@H]2C1` [Compound 4, β-amyrin] was tested, and the IC50 [1] was 1220 nM.
In the case of `CCCCCCCCCCCCCCCC(=O)O` [Compound 5, palmitic acid], the IC50 [1] is reported as 240000 nM.
With `CC[C@H](CC[C@@H](C)[C@H]1CC[C@H]2[C@@H]3CC=C4C[C@@H](O)CC[C@]4(C)[C@H]3CC[C@]12C)C(C)C` [Compound 6, sitosterol] the IC50 [1] was 18700 nM and the “mode of inhibition of alpha-glucosidase” value [2] was “reversible competitive inhibition”.
In the case of `CC[C@H](/C=C/[C@@H](C)[C@H]1CC[C@H]2[C@@H]3CC=C4C[C@@H](O)CC[C@]4(C)[C@H]3CC[C@]12C)C(C)C` [Compound 7, stigmasterol], the IC50 [1] is reported as 163000 nM and the “mode of inhibition of alpha-glucosidase” value [2] is reported as “reversible competitive inhibition”.
In the case of `C[C@H]1O[C@H](O[C@H]2[C@H](O)[C@@H](O)[C@@H](O[C@H]3[C@H](O)[C@@H](O)C(O)O[C@@H]3CO)O[C@@H]2CO)[C@H](O)[C@@H](O)[C@@H]1N[C@H]1C=C(CO)[C@@H](O)[C@H](O)[C@H]1O` (some centres unmarked) [acarbose, reference compound], the “mode of inhibition of alpha-glucosidase” value [2] is reported as “competitive inhibition”.
